# Laboratory results from patent publication US20230146455A1, “TREATMENT OF INFLAMMATORY DISEASES WITH PEPTIDES AND PHARMACEUTICAL COMPOSITIONS” (Yuyu Pharma, Inc., priority 2020, published 2023).
# “And” between values parts separate entries of the source, which are not always exact repeats. Equal values may be shown once. Where a SMILES comes first, the peptide text is derived from it. [ ]: non-standard residue; d: D form. Hyp = O=C(O)[C@@H]1C[C@@H](O)CN1
# Experiments:
# [1] = PBMC cell counts (total, live, viability; trypan blue, Countess) with and without LPS and test articles (Example 9); type: cell-based, human; details: human, PBMCs, 24 hr
# Procedure, shortened: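 Human PBMCs were pretreated 2 h with test articles (0.001–100 uM) or 0.5% DMSO vehicle, then given LPS at 5 ug/ml or no LPS, in triplicate. After 24 hr, total and live cells and viability were counted by 1:1 trypan blue staining on an automated counter.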
# CCL5/RANTES = experiment: Example 9 Luminex, LPS hPBMCs: CCL5/RANTES; type: cell-based, human; details: PBMC + LPS(5 ug/ml)
# Protocol: Treatment Human PBMCs were pretreated with YY-101, YDE-011 and YDE-043 or reference compound; Xiidra® at various concentration (ranging from 1 nM to 100 uM) for 2 h before stimulation. An equal volume of 0.5% DMSO was used as a vehicle control. Then, the cells were treated with LPS at 5 ug/ml. The supernatants from treated cells were harvested at 24 h and placed in a 96 well for Luminex cytokine & chemokine profiling using a Luminex 200 multiplex assay (Luminex; R&D system, USA).
# The main study arm with triplicate wells per group in a 24-well plate: • 1. Blank • 2. PBMC: 0.5% DMSO • 3. PBMC+LPS (5 ug/ml) • 4. PBMC+YY-101 100 uM • 5. PBMC+YY-101 10 uM • 6. PBMC+YY-101 1 uM • 7. PBMC+YY-101 0.1 uM • 8. PBMC+YY-101 0.01 uM • 9. PBMC+LPS (5 ug/ml)+Xiidra®100 uM • 10. PBMC+LPS (5 ug/ml)+Xiidra® 10 uM • 11. PBMC+LPS (5 ug/ml)+Xiidra® 1 uM • 12. PBMC+LPS (5 ug/ml)+Xiidra®0.1 uM • 13. PBMC+LPS (5 ug/ml)+Xiidra®0.01 uM • 14. PBMC+LPS (5 ug/ml)+Xiidra®0.001 uM • 15. PBMC+LPS (5 ug/ml)+YY-101 100 uM • 16. PBMC+LPS (5 ug/ml)+YY-101 10 uM • 17. PBMC+LPS (5 ug/ml)+YY-101 1 uM • 18. PBMC+LPS (5 ug/ml)+YY-101 0.1 uM • 19. PBMC+LPS (5 ug/ml)+YY-101 0.01 uM • 20. PBMC+LPS (5 ug/ml)+YY-101 0.001 uM • 21. PBMC+LPS (5 ug/ml)+YDE-011 100 uM • 22. PBMC+LPS (5 ug/ml)+YDE-011 10 uM • 23. PBMC+LPS (5 ug/ml)+YDE-011 1 uM • 24. PBMC+LPS (5 ug/ml)+YDE-011 0.1 uM • 25. PBMC+LPS (5 ug/ml)+YDE-011 0.01 uM • 26. PBMC+LPS (5 ug/ml)+YDE-011 0.001 uM • 27. PBMC+LPS (5 ug/ml)+YDE-043 100 uM • 28. PBMC+LPS (5 ug/ml)+YDE-043 10 uM • 29. PBMC+LPS (5 ug/ml)+YDE-043 1 uM • 30. PBMC+LPS (5 ug/ml)+YDE-043 0.1 uM • 31. PBMC+LPS (5 ug/ml)+YDE-043 0.01 uM • 32. PBMC+LPS (5 ug/ml)+YDE-043 0.001 uM
# Multiplex assay was used to measure 30 cytokines and chemokines. The 1:2, 1:10 and 1:200 diluted cell supernatant and serial dilution of the standard were dispensed into a 96 well plate at 50 ul/well. Then, the pre-mixed cocktail of antibody-coated magnetic beads was dispensed at 50 ul/well and incubated at room temperature for 2 h in a horizontal orbital microplate shaker at 800±500 rpm. The beads were washed using a magnetic device to prevent loss. The biotin-antibody was dispensed in 50 ul of each well and incubated at room temperature for 1 h in a shaker at 800±500 rpm. After washing, streptavidin-PE was added at 50 ul/well and incubated at room temperature for 30 min in a shaker under the same conditions. Finally, after washing, wash buffer (100 ul/well) was added to the plate and incubated in a shaker for 2 min. The Luminex™ 200 setting were set according to the manufacturer's protocol. The data was calculated with a standard five-parameter logistic nonlinear regression analysis of the data (xPonent software 4.2, USA). The levels of cytokine/chemokine are normalized to the live cell counts (1×10^5 cells/mL) and presented as concentrations per mL (pg/mL or ng/mL).
# [2] = test article 0.001 uM, single replicates (1st, 2nd, 3rd)
# [3] = test article 0.01 uM, single replicates (1st, 2nd, 3rd)
# [4] = test article 0.1 uM, single replicates (1st, 2nd, 3rd)
# [5] = test article 1 uM, single replicates (1st, 2nd, 3rd)
# [6] = test article 10 uM, single replicates (1st, 2nd, 3rd)
# [7] = test article 100 uM, single replicates (1st, 2nd, 3rd)
smiles,measurement,setting,value
CC(C)C[C@H](NC(=O)[C@H](CCC(N)=O)NC(=O)CNC(=O)[C@@H]1C[C@@H](O)CN1)C(=O)NCC(=O)O [YDE-043] (H-[Hyp]GQLG-OH; N-terminus and C-terminus assumed),"viability at 24 h, 0.001 µM",[1]; PBMC + LPS(5 ug/ml) + compound 0.001 uM,79.3 ± 1.5%
same,"viability at 24 h, 0.01 µM",[1]; PBMC + LPS(5 ug/ml) + compound 0.01 uM,77.3 ± 6.9%
same,"viability at 24 h, 0.1 µM",[1]; PBMC + LPS(5 ug/ml) + compound 0.1 uM,82 ± 4%
same,"viability at 24 h, 1 µM",[1]; PBMC + LPS(5 ug/ml) + compound 1 uM,78 ± 5%
same,"viability at 24 h, 10 µM",[1]; PBMC + LPS(5 ug/ml) + compound 10 uM,83.3 ± 3.3%
same,"viability at 24 h, 100 µM",[1]; PBMC + LPS(5 ug/ml) + compound 100 uM,84.5 ± 4.5%
same,Concentration (CCL5/RANTES),"CCL5/RANTES; test article 0.001 uM, Mean",207.1 pg/mL
same,MFI (Bead name: CCL5/RANTES),"CCL5/RANTES; test article 0.001 uM, Mean",469.3
same,conc/live cell (CCL5/RANTES),"CCL5/RANTES; test article 0.001 uM, Mean",42.0 pg/10^5
same,Concentration (CCL5/RANTES),CCL5/RANTES; [2],199.1 pg/mL and 216.5 pg/mL and 205.7 pg/mL
same,MFI (Bead name: CCL5/RANTES),CCL5/RANTES; [2],445.5 and 497.5 and 465.0
same,conc/live cell (CCL5/RANTES),CCL5/RANTES; [2],45.3 pg/10^5 and 36.1 pg/10^5 and 44.7 pg/10^5
same,Concentration (CCL5/RANTES),"CCL5/RANTES; test article 0.01 uM, Mean",214.6 pg/mL
same,MFI (Bead name: CCL5/RANTES),"CCL5/RANTES; test article 0.01 uM, Mean",491.8
same,conc/live cell (CCL5/RANTES),"CCL5/RANTES; test article 0.01 uM, Mean",41.1 pg/10^5
same,Concentration (CCL5/RANTES),CCL5/RANTES; [3],219.3 pg/mL and 212.9 pg/mL and 211.7 pg/mL
same,MFI (Bead name: CCL5/RANTES),CCL5/RANTES; [3],506.0 and 486.5 and 483.0
same,conc/live cell (CCL5/RANTES),CCL5/RANTES; [3],48.7 pg/10^5 and 32.3 pg/10^5 and 42.3 pg/10^5
same,Concentration (CCL5/RANTES),"CCL5/RANTES; test article 0.1 uM, Mean",215.9 pg/mL
same,MFI (Bead name: CCL5/RANTES),"CCL5/RANTES; test article 0.1 uM, Mean",495.8
same,conc/live cell (CCL5/RANTES),"CCL5/RANTES; test article 0.1 uM, Mean",40.1 pg/10^5
same,Concentration (CCL5/RANTES),CCL5/RANTES; [4],220.2 pg/mL and 200.1 pg/mL and 227.4 pg/mL
same,MFI (Bead name: CCL5/RANTES),CCL5/RANTES; [4],508.5 and 448.5 and 530.5
same,conc/live cell (CCL5/RANTES),CCL5/RANTES; [4],44.0 pg/10^5 and 35.7 pg/10^5 and 40.6 pg/10^5
same,Concentration (CCL5/RANTES),"CCL5/RANTES; test article 1 uM, Mean",214.4 pg/mL
same,MFI (Bead name: CCL5/RANTES),"CCL5/RANTES; test article 1 uM, Mean",491.2
same,conc/live cell (CCL5/RANTES),"CCL5/RANTES; test article 1 uM, Mean",40.7 pg/10^5
same,Concentration (CCL5/RANTES),CCL5/RANTES; [5],218.2 pg/mL and 212.9 pg/mL and 212.2 pg/mL
same,MFI (Bead name: CCL5/RANTES),CCL5/RANTES; [5],502.5 and 486.5 and 484.5
same,conc/live cell (CCL5/RANTES),CCL5/RANTES; [5],37.6 pg/10^5 and 44.3 pg/10^5 and 40.0 pg/10^5
same,Concentration (CCL5/RANTES),"CCL5/RANTES; test article 10 uM, Mean",202.8 pg/mL
same,MFI (Bead name: CCL5/RANTES),"CCL5/RANTES; test article 10 uM, Mean",456.5
same,conc/live cell (CCL5/RANTES),"CCL5/RANTES; test article 10 uM, Mean",37.6 pg/10^5
same,Concentration (CCL5/RANTES),CCL5/RANTES; [6],212.9 pg/mL and 193.7 pg/mL and 201.8 pg/mL
same,MFI (Bead name: CCL5/RANTES),CCL5/RANTES; [6],486.5 and 429.5 and 453.5
same,conc/live cell (CCL5/RANTES),CCL5/RANTES; [6],40.9 pg/10^5 and 35.9 pg/10^5 and 36.0 pg/10^5
same,Concentration (CCL5/RANTES),"CCL5/RANTES; test article 100 uM, Mean",163.0 pg/mL
same,MFI (Bead name: CCL5/RANTES),"CCL5/RANTES; test article 100 uM, Mean",341.8
same,conc/live cell (CCL5/RANTES),"CCL5/RANTES; test article 100 uM, Mean",25.9 pg/10^5
same,Concentration (CCL5/RANTES),CCL5/RANTES; [7],167.0 pg/mL and 159.0 pg/mL
same,MFI (Bead name: CCL5/RANTES),CCL5/RANTES; [7],353.0 and 330.5
same,conc/live cell (CCL5/RANTES),CCL5/RANTES; [7],26.9 pg/10^5 and 24.8 pg/10^5
